Test results: publication PMC6627553, “Cardiac Rhythm and Molecular Docking Studies of Ion Channel Ligands with Cardiotoxicity in Zebrafish” (Cells, 2019)
“Also recorded” adds a separate entry of the source. Where a name gives a salt, the structure may show the parent alone. Read-outs that look alike come from different tables or passages of the source.

Columns and labels:
[1] = test system: zebrafish embryos aged 72 hpf; assay: Chronology method: heart beat recorded at 5 min intervals over 30 min; conditions: 10 μM; for Cardiac phenotype by time chronology method: 10 sec recordings at 5 min intervals over 30 min, methylcellulose mounted; for Atrium and ventricle rhythmicity pattern after 30 min incubation: compared to control
Procedure: (§1) Stock concentrations for each compound in the library are 10 mM with 100 µL volume. The compounds are diluted with distilled water to make working solutions at 10 µM. For drug treatment, 20 µM of the compound stock was dropped onto the fish mounted with the same volume (around 50 µL) of 3% methylcellulose for a final working concentration of 10 µM. The heart beats from three zebrafish larvae were used for the first round of screening. […] The heart beats from five zebrafish larvae for each compound were recorded for 10 sec at 5 min intervals over a period of 30 min.
(§2) After drug administration, we video recorded the heart beat for 10 sec at 5 min intervals, over a period of 30 min.

[2] = test system: zebrafish embryos aged 72 hpf; assay: End-point screen of ion channel ligand library for cardiac rhythm (ImageJ-based); conditions: 10 μM, 30 min incubation
Procedure: Seventy-two hpf larvae were used for this study.
The compounds are diluted with distilled water to make working solutions at 10 µM. For drug treatment, 20 µM of the compound stock was dropped onto the fish mounted with the same volume (around 50 µL) of 3% methylcellulose for a final working concentration of 10 µM. The heart beats from three zebrafish larvae were used for the first round of screening. […] The heart beats from five zebrafish larvae for each compound were recorded for 10 sec at 5 min intervals over a period of 30 min.
For the cardiac rhythm assay, we mounted zebrafish embryos aged at 72 hpf with 3% methylcellulose to reduce their movement, and later applied chemicals from an ion channel ligand library (containing 70 compounds) at 10 μM to measure the changes in cardiac rhythm according to our previous ImageJ-based method [25]. In order to prevent the potential side effects of anesthesia on heart rate or rhythmicity, we used methylcellulose to mount zebrafish larvae for videotaping.
Initially, we used an image-based end-point method to screen the potential effects of an ion channel ligand library on heart beat rhythm alterations. […] In order to screen a potential compound with high cardiotoxicity at a low dose, we performed chemical screening at 10 μM as a starting point. […] A heartbeat that exceeds these ranges is considered abnormal.

[3] = test system: zebrafish embryos aged 72 hpf; assay: Dose response experiment for lowest effective dose (LOED), time chronology method; conditions: 1 µM and 5 µM
Procedure: Three different doses, 1, 5 and 10 μM, of the tested compounds were given to zebrafish embryos aged 72 hpf, and the heart beat rate and rhythmicity were recorded for comparison by the time chronology method.
(§3) Five zebrafish larvae aged at 72 h post-fertilization (hpf) were used in this assay.

[4] = test system: zebrafish larvae aged 72 hpf; assay: Washout experiment for heart rate and rhythmicity; conditions: washout for 30 min and 1 h
Procedure: as §3

[5] = test system: zebrafish embryos aged 72 hpf; conditions: in vivo
Procedure: as §1, §2

hERG channel = conditions: cited from earlier work
cardiac K+ channels = conditions: cited from earlier work
rats = conditions: cited from earlier work

| SMILES | Cardiac phenotype by time chronology method [1] | Atrium and ventricle rhythmicity pattern after 30 min incubation [1] | Heart rhythm phenotype in first step screening (end-point screen) [2] | further results |
| --- | --- | --- | --- | --- |
| COC(=O)c1c(C)[nH]c(C)c1C(=O)c1ccccc1Cc1ccccc1 [compound 1346, FPL-64176] | arrhythmia | arrhythmic beating | ventricular fibrillation or total heart stop; also recorded: irregular heart rhythmicity | Heart rhythm phenotype in first step screening (end-point screen) ([2]; listed as FPL-64176): heart completely stopped; Effect on cardiac rhythmicity at low concentration [3]: did not change; Effect on heart beat rate at low concentration [3]: did not change the heart beat rate |
| Fc1ccc(C(c2ccc(F)cc2)N2CCN(C/C=C/c3ccccc3)CC2)cc1 [compound 1345, Flunarizine hydrochloride] | slowing of heart rate as well as arrhythmia after incubation for 25 and 30 min; also recorded: slowing of the heart as well as arrhythmia after incubation for 25 and 30 min | arryhtmia was not shown in the pattern; however, the peak was less compact compared to the control | slight slowing of the heartbeat (bradycardia); also recorded: irregular heart rhythmicity |  |
| O=c1[nH]c2ccccc2n1C1CCN(CCCC(c2ccc(F)cc2)c2ccc(F)cc2)CC1 [compound 1360, Pimozide] | atrioventricular block occurred, subsequently becoming more severe over time | arrhythmic, with one peak in the ventricle being followed by two in the atrium | ventricular fibrillation or total heart stop; also recorded: irregular heart rhythmicity | Restoration of heart rate after washout [4]: could not be fully restored, even after 1 h of washout treatment; Reversal of arrhythmic effect after washout [4]: unable to fully reverse the arrhythmic effect; Cardiac phenotype by time chronology method [5]: atrioventricular block from 10 min onwards; Concentration giving significant inhibition of hERG channel currents (hERG channel; as low as): 3 nM; IC50 (hERG channel; read-out: IC50 of hERG channel currents): 18 nM; Reported cardiac adverse effect (cardiac K+ channels): acquired long QT syndrome and ventricle arrhythmia; Reversibility of cardiotoxicity effect (cardiac K+ channels): poorly reversible |
| O=C1NCN(c2ccccc2)C12CCN(CCCC(c1ccc(F)cc1)c1ccc(F)cc1)CC2 [compound 1377, Fluspirilene] | arrhythmia from 5 min onwards | arrhythmic, with one peak of the ventricle being followed by two of the atrium | ventricular fibrillation or total heart stop; also recorded: irregular heart rhythmicity; also recorded: total heart stop | Cardiac phenotype by time chronology method ([1]; listed as fluspirilene): arrhythmia occurred from 5 min onwards and became more severe over time; Heart rhythm phenotype in first step screening (end-point screen) ([2]; listed as fluspirilene): heart completely stopped |
| CNc1ccc2oc(C[C@H]3O[C@@]4(CC[C@H]3C)O[C@H]([C@H](C)C(=O)c3ccc[nH]3)[C@H](C)C[C@H]4C)nc2c1C(=O)O [compound 1333, Antibiotic A-23187] |  | 1:1 rhythm, but the peak was more compact | ventricular fibrillation or total heart stop; also recorded: irregular heart rhythmicity | Increase of heart beat (rats): up to 50%; Heart rhythm phenotype in first step screening (end-point screen) ([2]; listed as Antibiotic A-23187): ventricular fibrillation |
